Here are results for eleven compounds from US12662451B2, “Chemical compounds and uses thereof” (GLAXOSMITHKLINE INTELLECTUAL PROPERTY (NO.4) LIMITED, priority 2023, dated 2026).

Series [1] relates to SW48 human colorectal cancer cells. Kind of series: Calculated free drug potency in SW48 cell assay, corrected with media free fraction (Example C). The conditions noted are these: Homo sapiens, SW48, SW48 pCC50 corrected with measured free fraction in cell assay media. It is filed as cell-based. In a few lines:
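Compound spiked at nominal 1 μM into cell assay medium and dialysed against PBS (100 mM sodium phosphate, 150 mM NaCl, pH 7.4) by rapid equilibrium dialysis, 4 h, 37 °C, shaking. Percent unbound from LC-MS/MS peak area ratios (240 min vs 0 min); cell assay concentrations corrected by this free fraction.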

Series [2] deals with SW48 human colorectal cancer cells (MSI-H cancer cells). The series can be described thus: SW48 cell viability, CellTiter-Glo, 120 hours (Example B). The conditions noted are these: Homo sapiens.
Series [3] is described as follows: Cell culture media unbound percentage and stability by rapid equilibrium dialysis (Example C). It is filed as in vitro ADME. The settings on record: bovine, cell assay medium (RPMI-1640 with 10% fetal bovine serum), pH 7.4, rapid equilibrium dialysis, 4 hours at 37° C., read-out: Cell Culture Media Binding (% unbound). In a few lines: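 Compound spiked into cell culture medium at nominal 1 μM and dialysed against PBS (100 mM sodium phosphate + 150 mM NaCl, pH 7.4) by rapid equilibrium dialysis, triplicate, 4 h at 37° C with shaking. LC-MS/MS peak area ratios gave percent unbound (receiver/donor) and percent stability (240 min vs 0 min).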
A general note: In equilibrium dialysis free small molecules cross a membrane that holds back macromolecules.

Series [4] has as its target T1, recombinant full-length WRN protein (1-1432) (Homo sapiens, UniProt Q14191).
T1 construct: recombinant full-length WRN protein (1-1432)
The series can be described thus: WRN unwinding activity, fluorogenic 384-well assay (Example A). It is filed as biochemical. The settings on record: WRN unwinding activity, 4 hr; Table 2; read-out: 4 hr UNW pIC50 (converted). In a few lines: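 200 pM enzyme (2× stock) preincubated with compound 4 h at ambient temperature, then 200 μM ATP and 12 nM quenched TAMRA-labelled dsDNA (2× stocks) added for 60 min; EDTA-quenched. Buffer 25 mM Tris pH 8.0, 5 mM NaCl, 2 mM MgCl2. Fluorescence at 525/598 nm; pIC50 from four-parameter fit.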

The mark [5] stands for this setting: SW48, 120 h, read-out: SW48 pCC50, SW48 cell viability, 120 hours incubation (converted), Table 2.
[6] abbreviates: SW48, read-out: SW48 pCC50, measured potency from Example B, as repeated in Table 3 (converted).

Structures can show the parent of a compound that is named as a salt. Where two headings read alike, the source gives them in different places.

T1 sequence (Q14191 whole entry): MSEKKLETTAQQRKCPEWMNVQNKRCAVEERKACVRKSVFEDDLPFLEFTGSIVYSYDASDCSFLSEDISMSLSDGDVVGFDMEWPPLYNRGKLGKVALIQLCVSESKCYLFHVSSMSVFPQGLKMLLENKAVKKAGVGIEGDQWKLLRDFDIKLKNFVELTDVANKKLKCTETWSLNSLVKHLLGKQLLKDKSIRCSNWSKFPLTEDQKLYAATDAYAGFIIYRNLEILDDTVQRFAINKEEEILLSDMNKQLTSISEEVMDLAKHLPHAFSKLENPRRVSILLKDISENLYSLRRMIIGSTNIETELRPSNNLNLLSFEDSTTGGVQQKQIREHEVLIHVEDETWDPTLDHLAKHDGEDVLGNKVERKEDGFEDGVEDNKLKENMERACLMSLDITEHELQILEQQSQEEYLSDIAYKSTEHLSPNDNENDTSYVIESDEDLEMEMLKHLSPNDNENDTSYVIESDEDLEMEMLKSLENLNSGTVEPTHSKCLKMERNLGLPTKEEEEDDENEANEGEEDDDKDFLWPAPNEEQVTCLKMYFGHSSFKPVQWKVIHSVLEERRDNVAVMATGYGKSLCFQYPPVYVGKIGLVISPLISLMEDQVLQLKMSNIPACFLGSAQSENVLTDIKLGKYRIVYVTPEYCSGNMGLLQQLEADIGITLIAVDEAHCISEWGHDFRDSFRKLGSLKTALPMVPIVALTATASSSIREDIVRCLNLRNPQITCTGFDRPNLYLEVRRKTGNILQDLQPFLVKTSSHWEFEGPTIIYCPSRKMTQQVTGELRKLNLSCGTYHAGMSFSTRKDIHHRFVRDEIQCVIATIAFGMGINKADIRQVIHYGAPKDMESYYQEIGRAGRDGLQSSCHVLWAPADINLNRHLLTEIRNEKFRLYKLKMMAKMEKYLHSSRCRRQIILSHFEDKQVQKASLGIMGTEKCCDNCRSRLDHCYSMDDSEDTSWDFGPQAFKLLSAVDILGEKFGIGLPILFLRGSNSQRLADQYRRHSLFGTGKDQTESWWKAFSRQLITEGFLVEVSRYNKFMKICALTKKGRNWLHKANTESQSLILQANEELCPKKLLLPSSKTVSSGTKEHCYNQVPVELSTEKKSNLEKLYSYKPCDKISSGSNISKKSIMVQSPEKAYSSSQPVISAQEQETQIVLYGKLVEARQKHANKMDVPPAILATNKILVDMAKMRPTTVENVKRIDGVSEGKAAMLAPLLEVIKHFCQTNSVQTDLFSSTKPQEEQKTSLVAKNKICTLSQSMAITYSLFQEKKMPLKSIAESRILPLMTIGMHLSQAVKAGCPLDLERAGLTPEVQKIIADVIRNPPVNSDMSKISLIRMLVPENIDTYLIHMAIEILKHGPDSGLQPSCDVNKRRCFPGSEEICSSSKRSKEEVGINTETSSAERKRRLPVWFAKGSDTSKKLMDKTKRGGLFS

`CN(c1ccc([C@H]2CCC[C@@H](C(=O)Nc3ccc(C(F)(F)F)cc3F)[C@@H]2C(=O)O)cc1)S(C)(=O)=O` [Example 285, (1R,2R,6S)-2-((2-fluoro-4-(trifluoromethyl)phenyl)carbamoyl)-6-(4-(N-methylmethylsulfonamido)phenyl) cyclohexane-1-carboxylic acid]: the CC50 in series [1] is 3470 nM; in series [2] (setting [5]) it was 6310 nM; in series [2] (setting [6]), 6310 nM. Moreover, in series [3], the fraction unbound at 4 h, 1 µM amounted to 0.549. Besides, the IC50 in series [4] was 31.6 nM.

For `CCO[C@@H]1C[C@H](c2ccc(NS(=O)(=O)c3ccc4c(c3)nc(C)n4C)cc2)[C@@H](C(=O)O)[C@H](C(=O)Nc2ccc(C(F)(F)F)cc2F)C1` [Example 288, (1R,2S,4R,6R)-2-(4-((1,2-dimethyl-1H-benzo[d]imidazole)-5-sulfonamido)phenyl)-4-ethoxy-6-((2-fluoro-4-(trifluoromethyl)phenyl)carbamoyl)cyclohexane-1-carboxylic acid], the values for the CC50 in series [1], in series [2] (setting [5]) and in series [2] (setting [6]) were 21.4 nM, 1000 nM and 1000 nM, respectively. The fraction unbound at 4 h, 1 µM in series [3] is 0.0214. Besides, in series [4], the IC50 is 5.01 nM.

Regarding `Cc1nc2cc(S(=O)(=O)N(C)c3ccc([C@H]4CCC[C@@H](C(=O)Nc5ccc(C(F)(F)F)cc5F)[C@@H]4C(=O)O)cc3)cc(CCN)c2n1C` [Example 289, (1R,2S,6R)-2-(4-((7-(2-aminoethyl)-N,1,2-trimethyl-1H-benzo[d]imidazole)-5-sulfonamido)phenyl)-6-((2-fluoro-4-(trifluoromethyl)phenyl)carbamoyl)cyclohexane-1-carboxylic acid, hydrochloride], the values for the CC50 in series [1] and in series [2] (setting [5]) were 4070 nM and 10000 nM, respectively. Besides, in series [3], the fraction unbound at 4 h, 1 µM was 0.412. Moreover, the IC50 in series [4] is 1.58 nM.

Turning to `Cc1nc2cc(S(=O)(=O)N(C)c3ccc([C@H]4CCC[C@@H](C(=O)Nc5ccc(C(F)(F)F)cc5F)[C@@H]4C(=O)O)cc3)cc(CCN(C)C)c2n1C` [Example 290, (1R,2S,6R)-2-(4-((7-(2-(dimethylamino)ethyl)-N,1,2-trimethyl-1H-benzo[d]imidazole)-5-sulfonamido)phenyl)-6-((2-fluoro-4-(trifluoromethyl)phenyl)carbamoyl)cyclohexane-1-carboxylic acid], the CC50 in series [1] was 162 nM; in series [2] (setting [5]) it was 398 nM; in series [2] (setting [6]), 398 nM. The fraction unbound at 4 h, 1 µM in series [3] amounted to 0.411. The IC50 in series [4] was 1.58 nM.

Consider `Cc1cc([C@H]2CCC[C@@H](C(=O)Nc3ccc(C(F)(F)F)cc3F)[C@@H]2C(=O)O)ccc1N(C)S(=O)(=O)c1ccc2c(c1)nc(C)n2C` [Example 295, (1R,2R,6S)-2-((2-fluoro-4-(trifluoromethyl)phenyl)carbamoyl)-6-(3-methyl-4-((N,1,2-trimethyl-1H-benzo[d]imidazole)-5-sulfonamido)phenyl)cyclohexane-1-carboxylic acid], for which the CC50 in series [1] is 186 nM; in series [2] (setting [5]) it was 1580 nM; in series [2] (setting [6]) it was 1580 nM. Further, the fraction unbound at 4 h, 1 µM in series [3] turned out to be 0.118. Besides, the IC50 in series [4] was 1.58 nM.

Turning to `Cc1nc2cc(S(=O)(=O)N(C)c3ccc([C@H]4CCC[C@@H](C(=O)Nc5ccc(C(F)(F)F)cc5F)[C@@H]4C(=O)O)cc3Cl)ccc2n1C` [Example 296], the CC50 in series [1] is 155 nM; in series [2] (setting [5]) it was 1580 nM; in series [2] (setting [6]) it was 1580 nM. The fraction unbound at 4 h, 1 µM in series [3] is 0.0979. Also, the IC50 in series [4] is 1.58 nM.

Take `CCOC1CC(C(=O)Nc2ccc(C(F)(F)F)cc2)C(C(=O)O)C(c2ccc(N(C)S(=O)(=O)c3ccc4c(c3)nc(C)n4C)cc2)C1` [Example 330, rel-(1R,2R,4R,6S)-4-ethoxy-2-((4-(trifluoromethyl)phenyl)carbamoyl)-6-(4-((N,1,2-trimethyl-1H-benzo[d]imidazole)-5-sulfonamido)phenyl)cyclohexane-1-carboxylic acid]: the CC50 in series [1] is 40.7 nM; in series [2] (setting [5]), 398 nM; in series [2] (setting [6]), 398 nM. Besides, the fraction unbound at 4 h, 1 µM in series [3] stood at 0.102. The IC50 in series [4] was 5.01 nM.

With `CN(c1ccc([C@H]2CCC[C@@H](C(=O)Nc3ccc(C(F)(F)F)cc3F)[C@@H]2C(=O)O)cc1)S(=O)(=O)c1ccc2c(c1)nc(Cl)n2C` [Example 365, (1R,2S,6R)-2-(4-((2-chloro-N,1-dimethyl-1H-benzo[d]imidazole)-5-sulfonamido)phenyl)-6-((2-fluoro-4-(trifluoromethyl)phenyl)carbamoyl)cyclohexane-1-carboxylic acid], the CC50 in series [1] was 26.3 nM; in series [2] (setting [5]) it was 398 nM; in series [2] (setting [6]) it was 398 nM. The fraction unbound at 4 h, 1 µM in series [3] is 0.0658. For the same compound, the IC50 in series [4] is 3.16 nM.

`CN(c1ccc([C@H]2CCC[C@@H](C(=O)Nc3ccc(C(F)(F)F)cc3F)[C@@H]2C(=O)O)cc1)S(=O)(=O)c1ccc2c(c1)nc(CO)n2C` [Example 372, (1R,2R,6S)-2-((2-fluoro-4-(trifluoromethyl)phenyl)carbamoyl)-6-(4-((2-(hydroxymethyl)-N,1-dimethyl-1H-benzo[d]imidazole)-5-sulfonamido)phenyl)cyclohexane-1-carboxylic acid]: the CC50 was 41.7 nM in series [1], 200 nM in series [2] (setting [5]) and 200 nM in series [2] (setting [6]). In series [3], the fraction unbound at 4 h, 1 µM was 0.208. Moreover, in series [4], the IC50 was 1.58 nM.

As for `CCO[C@@H]1C[C@H](c2ccc(N(C)S(=O)(=O)c3ccc4c(c3)nc(CO)n4C)cc2)[C@@H](C(=O)O)[C@H](C(=O)Nc2ccc(C(F)(F)F)cc2F)C1` [Example 373, (1R,2R,4R,6S)-4-ethoxy-2-((2-fluoro-4-(trifluoromethyl)phenyl)carbamoyl)-6-(4-((2-(hydroxymethyl)-N,1-dimethyl-1H-benzo[d]imidazole)-5-sulfonamido)phenyl)cyclohexane-1-carboxylic acid], the values for the CC50 in series [1], in series [2] (setting [5]) and in series [2] (setting [6]) were 17.4 nM, 100 nM and 100 nM, respectively. Further, the fraction unbound at 4 h, 1 µM in series [3] was 0.175. Further, the IC50 in series [4] was 1.58 nM.

Consider `Cc1nc2cc(S(=O)(=O)N(C)c3ccc([C@H]4CCC[C@@H](C(=O)Nc5ccc(C(C)C)cc5)[C@@H]4C(=O)O)cc3)ccc2n1C` [Example 396, (1R,2R,6S)-2-((4-isopropylphenyl)carbamoyl)-6-(4-((N,1,2-trimethyl-1H-benzo[d]imidazole)-5-sulfonamido)phenyl)cyclohexane-1-carboxylic acid], for which the CC50 was 45.7 nM in series [1], 631 nM in series [2] (setting [5]) and 631 nM in series [2] (setting [6]). The fraction unbound at 4 h, 1 µM in series [3] worked out at 0.0717. Besides, in series [4], the IC50 is 1.58 nM.
